Experiments:
Assay in all cases: KINOMEscan competition binding
Conditions in all cases: compound 10.0 µM
FGFR4 (human) = FGFR4 (human) (UniProt P22455)
BRSK2 (human) = BRSK2 (human) (UniProt Q8IWQ3)
AURKC (human) = AURKC (human) (UniProt Q9UQB9)
ROS1 (human) = ROS1 (human) (UniProt P08922)
PRKAA1 (human) = PRKAA1 (human) (UniProt Q13131)
LIMK1 (human) = LIMK1 (human) (UniProt P53667)
MYLK (human) = MYLK (human) (UniProt Q15746)
NEK11 (human) = NEK11 (human) (UniProt Q8NG66)
PIM1 (human) = PIM1 (human) (UniProt P11309)
STK32B (human) = STK32B (human) (UniProt Q9NY57)
DAPK2 (human) = DAPK2 (human) (UniProt Q9UIK4)
FER (human) = FER (human) (UniProt P16591)
MAP3K6 (human) = MAP3K6 (human) (UniProt O95382)
TNIK (human) = TNIK (human) (UniProt Q9UKE5)
NEK9 (human) = NEK9 (human) (UniProt Q8TD19)
EIF2AK1 (human) = EIF2AK1 (human) (UniProt Q9BQI3)
STK39 (human) = STK39 (human) (UniProt Q9UEW8)
CAMK1D (human) = CAMK1D (human) (UniProt Q8IU85)
MAP4K2 (human) = MAP4K2 (human) (UniProt Q12851)
MAP4K5 (human) = MAP4K5 (human) (UniProt Q9Y4K4)
SRPK1 (human) = SRPK1 (human) (UniProt Q96SB4)
DCLK3 (human) = DCLK3 (human) (UniProt Q9C098)
SRC (human) = SRC (human) (UniProt P12931)
CSK (human) = CSK (human) (UniProt P41240)
CHEK2 (human) = CHEK2 (human) (UniProt O96017)
PRKCQ (human) = PRKCQ (human) (UniProt Q04759)
MAP3K12 (human) = MAP3K12 (human) (UniProt Q12852)
BMPR2 (human) = BMPR2 (human) (UniProt Q13873)
RPS6KB1 (human) = RPS6KB1 (human) (UniProt P23443)
INSRR (human) = INSRR (human) (UniProt P14616)
CASK (human) = CASK (human) (UniProt O14936)
CAMK2D (human) = CAMK2D (human) (UniProt Q13557)
AURKA (human) = AURKA (human) (UniProt O14965)
AKT3 (human) = AKT3 (human) (UniProt Q9Y243)
CDC42BPB (human) = CDC42BPB (human) (UniProt Q9Y5S2)
ACVRL1 (human) = ACVRL1 (human) (UniProt P37023)
HIPK2 (human) = HIPK2 (human) (UniProt Q9H2X6)
NEK4 (human) = NEK4 (human) (UniProt P51957)
HIPK3 (human) = HIPK3 (human) (UniProt Q9H422)
EPHA4 (human) = EPHA4 (human) (UniProt P54764)

Chain of CAMK1D (human) (Q8IU85 whole entry, looked up): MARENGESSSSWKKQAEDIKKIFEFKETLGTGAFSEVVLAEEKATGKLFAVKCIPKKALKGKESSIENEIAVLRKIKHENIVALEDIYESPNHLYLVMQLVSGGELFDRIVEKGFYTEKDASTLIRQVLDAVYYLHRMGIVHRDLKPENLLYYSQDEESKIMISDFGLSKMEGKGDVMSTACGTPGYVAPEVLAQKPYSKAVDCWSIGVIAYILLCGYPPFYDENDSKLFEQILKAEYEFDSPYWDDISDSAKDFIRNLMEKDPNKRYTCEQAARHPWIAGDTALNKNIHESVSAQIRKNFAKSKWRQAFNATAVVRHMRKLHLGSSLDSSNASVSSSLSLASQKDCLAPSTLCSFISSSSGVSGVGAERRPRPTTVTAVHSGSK
Chain of DAPK2 (human) (Q9UIK4 whole entry, looked up): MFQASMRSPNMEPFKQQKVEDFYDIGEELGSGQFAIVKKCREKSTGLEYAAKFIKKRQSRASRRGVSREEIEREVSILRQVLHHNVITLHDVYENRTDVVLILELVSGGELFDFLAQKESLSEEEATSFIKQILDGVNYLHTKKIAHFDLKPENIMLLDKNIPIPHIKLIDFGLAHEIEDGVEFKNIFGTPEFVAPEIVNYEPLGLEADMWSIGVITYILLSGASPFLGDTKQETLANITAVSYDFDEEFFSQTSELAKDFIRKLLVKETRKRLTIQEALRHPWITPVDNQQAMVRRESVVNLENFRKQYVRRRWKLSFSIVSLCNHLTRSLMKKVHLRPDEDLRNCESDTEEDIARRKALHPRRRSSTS
Chain of FER (human) (P16591 whole entry, looked up): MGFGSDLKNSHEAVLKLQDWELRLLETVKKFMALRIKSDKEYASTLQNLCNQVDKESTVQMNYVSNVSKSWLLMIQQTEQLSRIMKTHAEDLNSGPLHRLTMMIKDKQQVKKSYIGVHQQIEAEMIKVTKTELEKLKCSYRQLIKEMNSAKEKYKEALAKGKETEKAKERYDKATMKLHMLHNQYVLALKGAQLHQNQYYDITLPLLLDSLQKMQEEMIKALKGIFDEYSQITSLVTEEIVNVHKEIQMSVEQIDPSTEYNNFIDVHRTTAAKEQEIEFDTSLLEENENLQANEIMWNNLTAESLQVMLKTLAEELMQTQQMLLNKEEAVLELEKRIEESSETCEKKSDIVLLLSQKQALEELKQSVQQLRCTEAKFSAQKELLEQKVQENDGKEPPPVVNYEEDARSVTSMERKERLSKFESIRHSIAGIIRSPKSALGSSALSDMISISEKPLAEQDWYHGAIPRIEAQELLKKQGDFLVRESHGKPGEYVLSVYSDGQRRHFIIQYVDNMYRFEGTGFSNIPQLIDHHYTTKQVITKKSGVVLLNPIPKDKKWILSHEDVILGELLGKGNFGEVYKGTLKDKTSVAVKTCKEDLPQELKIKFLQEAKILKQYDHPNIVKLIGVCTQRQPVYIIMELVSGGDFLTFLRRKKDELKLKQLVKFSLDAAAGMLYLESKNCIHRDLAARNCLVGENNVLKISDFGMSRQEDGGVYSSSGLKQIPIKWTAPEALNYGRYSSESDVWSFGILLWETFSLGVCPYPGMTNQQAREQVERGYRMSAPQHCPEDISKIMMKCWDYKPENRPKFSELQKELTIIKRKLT
Chain of STK32B (human) (Q9NY57 whole entry, looked up): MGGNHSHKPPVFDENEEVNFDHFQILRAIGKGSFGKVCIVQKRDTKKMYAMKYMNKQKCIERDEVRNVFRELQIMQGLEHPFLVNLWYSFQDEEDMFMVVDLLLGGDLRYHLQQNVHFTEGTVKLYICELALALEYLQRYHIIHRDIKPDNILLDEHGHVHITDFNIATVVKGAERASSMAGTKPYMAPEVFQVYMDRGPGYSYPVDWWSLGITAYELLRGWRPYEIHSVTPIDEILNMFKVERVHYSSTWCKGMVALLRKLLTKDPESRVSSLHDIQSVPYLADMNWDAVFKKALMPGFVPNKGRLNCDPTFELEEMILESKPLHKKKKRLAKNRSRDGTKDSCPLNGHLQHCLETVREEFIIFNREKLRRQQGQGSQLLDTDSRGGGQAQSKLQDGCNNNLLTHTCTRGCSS
Chain of PRKCQ (human) (Q04759 whole entry, looked up): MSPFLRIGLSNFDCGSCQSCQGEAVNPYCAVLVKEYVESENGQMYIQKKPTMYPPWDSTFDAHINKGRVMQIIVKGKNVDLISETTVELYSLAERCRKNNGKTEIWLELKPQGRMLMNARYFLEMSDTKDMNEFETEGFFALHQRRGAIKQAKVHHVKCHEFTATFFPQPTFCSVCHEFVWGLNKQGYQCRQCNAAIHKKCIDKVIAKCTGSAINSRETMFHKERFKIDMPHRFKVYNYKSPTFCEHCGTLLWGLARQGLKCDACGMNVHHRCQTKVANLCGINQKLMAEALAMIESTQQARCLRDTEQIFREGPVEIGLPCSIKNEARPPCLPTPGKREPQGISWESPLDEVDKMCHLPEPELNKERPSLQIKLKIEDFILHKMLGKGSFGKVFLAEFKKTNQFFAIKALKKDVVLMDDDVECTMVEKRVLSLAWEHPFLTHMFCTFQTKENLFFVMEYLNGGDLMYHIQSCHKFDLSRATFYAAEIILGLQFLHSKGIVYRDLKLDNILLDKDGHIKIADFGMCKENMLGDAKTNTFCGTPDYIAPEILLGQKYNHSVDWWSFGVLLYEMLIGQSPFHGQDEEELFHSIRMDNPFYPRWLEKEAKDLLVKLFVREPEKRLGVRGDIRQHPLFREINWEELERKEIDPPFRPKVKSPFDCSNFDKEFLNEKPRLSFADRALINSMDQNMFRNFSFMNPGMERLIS
Chain of NEK4 (human) (P51957 whole entry, looked up): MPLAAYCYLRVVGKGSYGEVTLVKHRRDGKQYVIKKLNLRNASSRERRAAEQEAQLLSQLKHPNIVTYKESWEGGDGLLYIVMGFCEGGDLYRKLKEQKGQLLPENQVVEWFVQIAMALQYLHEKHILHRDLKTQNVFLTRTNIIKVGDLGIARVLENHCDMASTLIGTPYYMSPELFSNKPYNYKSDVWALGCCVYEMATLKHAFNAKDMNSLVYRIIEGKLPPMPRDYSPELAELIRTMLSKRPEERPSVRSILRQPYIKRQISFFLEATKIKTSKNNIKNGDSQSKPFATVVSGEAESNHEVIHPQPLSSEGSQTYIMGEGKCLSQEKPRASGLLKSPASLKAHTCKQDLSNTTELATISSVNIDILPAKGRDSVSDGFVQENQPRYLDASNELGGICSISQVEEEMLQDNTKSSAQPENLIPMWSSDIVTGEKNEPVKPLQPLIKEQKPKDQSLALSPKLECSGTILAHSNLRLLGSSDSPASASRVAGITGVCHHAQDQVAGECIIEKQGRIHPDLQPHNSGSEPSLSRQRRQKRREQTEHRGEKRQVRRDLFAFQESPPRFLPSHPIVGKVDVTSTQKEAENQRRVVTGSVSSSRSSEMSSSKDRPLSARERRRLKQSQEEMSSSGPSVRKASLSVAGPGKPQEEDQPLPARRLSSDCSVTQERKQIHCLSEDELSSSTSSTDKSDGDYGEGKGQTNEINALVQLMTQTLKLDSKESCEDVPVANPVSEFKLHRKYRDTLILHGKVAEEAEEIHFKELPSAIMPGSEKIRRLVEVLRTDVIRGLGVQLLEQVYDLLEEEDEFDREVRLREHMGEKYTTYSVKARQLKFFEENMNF
Chain of AURKA (human) (O14965 whole entry, looked up): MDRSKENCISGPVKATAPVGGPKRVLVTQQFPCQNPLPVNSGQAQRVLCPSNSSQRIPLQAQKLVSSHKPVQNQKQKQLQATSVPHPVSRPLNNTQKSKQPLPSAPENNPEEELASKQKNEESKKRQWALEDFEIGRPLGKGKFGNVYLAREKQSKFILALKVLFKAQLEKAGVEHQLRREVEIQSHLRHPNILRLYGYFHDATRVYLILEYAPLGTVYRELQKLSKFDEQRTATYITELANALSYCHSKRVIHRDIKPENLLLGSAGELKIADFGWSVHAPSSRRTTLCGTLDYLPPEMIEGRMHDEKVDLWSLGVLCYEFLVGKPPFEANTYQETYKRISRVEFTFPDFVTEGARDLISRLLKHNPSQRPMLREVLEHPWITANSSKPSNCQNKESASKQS
Chain of AURKC (human) (Q9UQB9 whole entry, looked up): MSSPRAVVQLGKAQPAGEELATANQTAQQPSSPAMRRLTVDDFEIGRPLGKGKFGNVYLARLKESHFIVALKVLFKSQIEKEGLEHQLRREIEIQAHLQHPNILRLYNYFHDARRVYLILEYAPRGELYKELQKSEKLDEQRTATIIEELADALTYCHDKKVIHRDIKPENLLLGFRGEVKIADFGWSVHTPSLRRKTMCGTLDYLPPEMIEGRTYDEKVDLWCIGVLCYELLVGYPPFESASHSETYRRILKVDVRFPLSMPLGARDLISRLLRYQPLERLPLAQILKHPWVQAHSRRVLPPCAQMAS
Chain of PRKAA1 (human) (Q13131 whole entry, looked up): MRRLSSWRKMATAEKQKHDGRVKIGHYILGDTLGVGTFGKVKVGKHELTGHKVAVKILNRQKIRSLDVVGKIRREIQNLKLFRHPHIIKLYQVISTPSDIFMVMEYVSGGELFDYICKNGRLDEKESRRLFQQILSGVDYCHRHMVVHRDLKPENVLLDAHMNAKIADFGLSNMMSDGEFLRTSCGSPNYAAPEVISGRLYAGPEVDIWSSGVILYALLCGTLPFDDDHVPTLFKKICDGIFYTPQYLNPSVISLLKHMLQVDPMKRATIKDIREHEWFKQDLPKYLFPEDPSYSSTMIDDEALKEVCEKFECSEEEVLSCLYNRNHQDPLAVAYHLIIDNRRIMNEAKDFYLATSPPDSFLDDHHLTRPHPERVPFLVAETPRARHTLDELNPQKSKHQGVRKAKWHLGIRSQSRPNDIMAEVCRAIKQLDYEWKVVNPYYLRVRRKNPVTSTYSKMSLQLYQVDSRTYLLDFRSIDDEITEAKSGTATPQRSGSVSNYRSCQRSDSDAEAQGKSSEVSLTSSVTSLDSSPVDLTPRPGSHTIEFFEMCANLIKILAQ

COc1cc2ncnc(-n3nc(-c4ccccn4)nc3N)c2cc1OC
kinase still bound, per cent of control (FGFR4 (human)): 96% | kinase still bound, per cent of control (BRSK2 (human)): 14% | kinase still bound, per cent of control (AURKC (human)): 6.2% | kinase still bound, per cent of control (ROS1 (human)): 25% | kinase still bound, per cent of control (PRKAA1 (human)): 19% | kinase still bound, per cent of control (LIMK1 (human)): 22% | kinase still bound, per cent of control (MYLK (human)): 0.8% | kinase still bound, per cent of control (NEK11 (human)): 80% | kinase still bound, per cent of control (PIM1 (human)): 15% | kinase still bound, per cent of control (STK32B (human)): 100% | kinase still bound, per cent of control (DAPK2 (human)): 12% | kinase still bound, per cent of control (FER (human)): 93% | kinase still bound, per cent of control (MAP3K6 (human)): 64% | kinase still bound, per cent of control (TNIK (human)): 40% | kinase still bound, per cent of control (NEK9 (human)): 2.2% | kinase still bound, per cent of control (EIF2AK1 (human)): 51% | kinase still bound, per cent of control (STK39 (human)): 80% | kinase still bound, per cent of control (CAMK1D (human)): 34% | kinase still bound, per cent of control (MAP4K2 (human)): 43% | kinase still bound, per cent of control (MAP4K5 (human)): 45% | kinase still bound, per cent of control (SRPK1 (human)): 83% | kinase still bound, per cent of control (DCLK3 (human)): 100% | kinase still bound, per cent of control (SRC (human)): 6.7% | kinase still bound, per cent of control (CSK (human)): 43% | kinase still bound, per cent of control (CHEK2 (human)): 78% | kinase still bound, per cent of control (PRKCQ (human)): 100% | kinase still bound, per cent of control (MAP3K12 (human)): 52% | kinase still bound, per cent of control (BMPR2 (human)): 88% | kinase still bound, per cent of control (RPS6KB1 (human)): 2.6% | kinase still bound, per cent of control (INSRR (human)): 100% | kinase still bound, per cent of control (CASK (human)): 26% | kinase still bound, per cent of control (CAMK2D (human)): 55% | kinase still bound, per cent of control (AURKA (human)): 15% | kinase still bound, per cent of control (AKT3 (human)): 100% | kinase still bound, per cent of control (CDC42BPB (human)): 100% | kinase still bound, per cent of control (ACVRL1 (human)): 15% | kinase still bound, per cent of control (HIPK2 (human)): 0.65% | kinase still bound, per cent of control (NEK4 (human)): 41% | kinase still bound, per cent of control (HIPK3 (human)): 0% | kinase still bound, per cent of control (EPHA4 (human)): 34%

— the kinase profiling compilation of Christmann-Franck et al. (2016)
